From the NIST ThermoML archive (doi:10.1021/je060271a)
Numbers after ± are expanded uncertainties.

Details: 323.15 K, Liquid, Vibrating tube method

CCCCCCC(=O)OCC(COC(=O)CCCCCC)(COC(=O)CCCCCC)COC(=O)CCCCCC [pentaerythritol tetraheptanoate]
Details	mass density [kg/m3]
102 kPa	955.7 ± 1.2
102.5 kPa	955.6 ± 1.2
102.8 kPa	955.6 ± 1.2
103.5 kPa	955.7 ± 1.2
104.8 kPa	955.6 ± 1.2
106.8 kPa	955.7 ± 1.2
109.1 kPa	955.7 ± 1.2
113.5 kPa	955.6 ± 1.2
119 kPa	955.5 ± 1.2
127.2 kPa	955.7 ± 1.2
130.7 kPa	955.6 ± 1.2
133.3 kPa	955.7 ± 1.2
136.2 kPa	955.6 ± 1.2
136.9 kPa	955.6 ± 1.2
138 kPa	955.7 ± 1.2
138.5 kPa	955.6 ± 1.2
139.2 kPa	955.7 ± 1.2
139.5 kPa	955.6 ± 1.2
140.6 kPa	955.6 ± 1.2
144.4 kPa	955.7 ± 1.2
144.9 kPa	955.7 ± 1.2
145.8 kPa	955.6 ± 1.2
147.5 kPa	955.7 ± 1.2
152.7 kPa	955.6 ± 1.2
153.6 kPa	955.7 ± 1.2
154.3 kPa	955.6 ± 1.2
155.5 kPa	955.8 ± 1.2
156.6 kPa	955.8 ± 1.2
157.4 kPa	955.7 ± 1.2
158.7 kPa	955.7 ± 1.2
159.7 kPa	955.7 ± 1.2
161.8 kPa	955.7 ± 1.2
163.2 kPa	955.6 ± 1.2
164.2 kPa	955.7 ± 1.2
165.3 kPa	955.8 ± 1.2
166.8 kPa	955.6 ± 1.2
168 kPa	955.8 ± 1.2
169.3 kPa	955.7 ± 1.2
170.8 kPa	955.7 ± 1.2
172 kPa	955.6 ± 1.2
173.3 kPa	955.7 ± 1.2
175 kPa	955.8 ± 1.2
176.4 kPa	955.7 ± 1.2
177.9 kPa	955.7 ± 1.2
179.7 kPa	955.6 ± 1.2
181.2 kPa	955.7 ± 1.2
182.8 kPa	955.8 ± 1.2
184.6 kPa	955.9 ± 1.2
186.5 kPa	955.7 ± 1.2
188 kPa	955.7 ± 1.2
190.1 kPa	955.7 ± 1.2
193.9 kPa	955.7 ± 1.2
196.2 kPa	955.6 ± 1.2
241.4 kPa	955.7 ± 1.2
245.4 kPa	955.7 ± 1.2
265.6 kPa	955.7 ± 1.2
319.3 kPa	955.8 ± 1.2
340.6 kPa	955.9 ± 1.2
347.8 kPa	955.9 ± 1.2
364.8 kPa	955.8 ± 1.2
373.5 kPa	955.8 ± 1.2
449.4 kPa	955.8 ± 1.2
461.8 kPa	955.9 ± 1.2
492.2 kPa	955.9 ± 1.2
510.3 kPa	955.9 ± 1.2
526.4 kPa	955.8 ± 1.2
543.6 kPa	956 ± 1.2
565.9 kPa	955.9 ± 1.2
711.1 kPa	955.8 ± 1.2
779.6 kPa	956.2 ± 1.2
814.3 kPa	956.1 ± 1.2
1089.1 kPa	956.3 ± 1.2
1094 kPa	956.3 ± 1.2
1098.2 kPa	956.3 ± 1.2
1102.3 kPa	956.3 ± 1.2
1107 kPa	956.4 ± 1.2
1111.5 kPa	956.4 ± 1.2
1115.9 kPa	956.4 ± 1.2
1120.4 kPa	956.4 ± 1.2
1125.8 kPa	956.5 ± 1.2
1130.3 kPa	956.4 ± 1.2
1134.8 kPa	956.4 ± 1.2
1139 kPa	956.5 ± 1.2
1144.5 kPa	956.3 ± 1.2
1149 kPa	956.4 ± 1.2
1153.9 kPa	956.4 ± 1.2
1159.3 kPa	956.3 ± 1.2
1168.5 kPa	956.5 ± 1.2
1178.6 kPa	956.4 ± 1.2
1183.8 kPa	956.5 ± 1.2
1189 kPa	956.4 ± 1.2
1195.1 kPa	956.5 ± 1.2
1199.8 kPa	956.4 ± 1.2
1204.6 kPa	956.4 ± 1.2
1209.5 kPa	956.5 ± 1.2
1220.6 kPa	956.5 ± 1.2
1225.4 kPa	956.4 ± 1.2
1231.5 kPa	956.5 ± 1.2
1236.9 kPa	956.4 ± 1.2
1242.6 kPa	956.5 ± 1.2
1253.4 kPa	956.3 ± 1.2
1258.4 kPa	956.6 ± 1.2
1263.5 kPa	956.3 ± 1.2
1275.6 kPa	956.5 ± 1.2
1281.2 kPa	956.4 ± 1.2
1286.7 kPa	956.4 ± 1.2
1293.2 kPa	956.5 ± 1.2
1298.9 kPa	956.4 ± 1.2
1304.6 kPa	956.7 ± 1.2
1311.6 kPa	956.5 ± 1.2
1317.3 kPa	956.6 ± 1.2
1323 kPa	956.5 ± 1.2
1328.9 kPa	956.5 ± 1.2
1421.1 kPa	956.7 ± 1.2
1427.4 kPa	956.6 ± 1.2
1434.2 kPa	956.7 ± 1.2
1442 kPa	956.6 ± 1.2
1448.9 kPa	956.6 ± 1.2
1457.1 kPa	956.6 ± 1.2
1463.5 kPa	956.7 ± 1.2
1470.3 kPa	956.7 ± 1.2
1477.4 kPa	956.6 ± 1.2
1485.6 kPa	956.6 ± 1.2
1492.5 kPa	956.6 ± 1.2
1499.8 kPa	956.7 ± 1.2
1507.4 kPa	956.7 ± 1.2
1523.2 kPa	956.6 ± 1.2
1619.7 kPa	956.8 ± 1.2
1629.6 kPa	956.7 ± 1.2
1719.4 kPa	956.9 ± 1.2
1728.2 kPa	956.8 ± 1.2
1736.9 kPa	956.8 ± 1.2
1745.9 kPa	956.8 ± 1.2
1775.6 kPa	956.9 ± 1.2
2116.8 kPa	957.1 ± 1.2
2152.2 kPa	957.1 ± 1.2
2381.2 kPa	957.2 ± 1.2
2470.4 kPa	957.3 ± 1.2
2492.4 kPa	957.2 ± 1.2
2508.4 kPa	957.3 ± 1.2
2527.1 kPa	957.3 ± 1.2
2559.7 kPa	957.3 ± 1.2
3115.5 kPa	957.7 ± 1.2
3137.8 kPa	957.7 ± 1.2
3159 kPa	957.8 ± 1.2
3207.3 kPa	957.8 ± 1.2
3229.7 kPa	957.7 ± 1.2
3644.1 kPa	958 ± 1.2
3670.9 kPa	958.1 ± 1.2
3703.5 kPa	958.2 ± 1.2
3731.4 kPa	958.2 ± 1.2
3759.3 kPa	958.1 ± 1.2
3792.9 kPa	958.3 ± 1.2
3822.5 kPa	958.2 ± 1.2
3850.4 kPa	958.2 ± 1.2
3884.5 kPa	958.2 ± 1.2
3913.6 kPa	958.2 ± 1.2
3943.3 kPa	958.4 ± 1.2
4059.8 kPa	958.5 ± 1.2
4061.6 kPa	958.4 ± 1.2
4063.3 kPa	958.4 ± 1.2
8709 kPa	961.5 ± 1.2
8730.4 kPa	961.5 ± 1.2
8752.3 kPa	961.6 ± 1.2
8778.6 kPa	961.5 ± 1.2
8802.6 kPa	961.5 ± 1.2
8824.6 kPa	961.6 ± 1.2
8846.3 kPa	961.7 ± 1.2
8868.4 kPa	961.6 ± 1.2
8895.1 kPa	961.7 ± 1.2
8917.5 kPa	961.5 ± 1.2
8944.2 kPa	961.7 ± 1.2
8967 kPa	961.7 ± 1.2
8990.1 kPa	961.6 ± 1.2
9017.1 kPa	961.7 ± 1.2
9040.1 kPa	961.7 ± 1.2
9063.7 kPa	961.7 ± 1.2
9091.6 kPa	961.8 ± 1.2
9116.3 kPa	961.8 ± 1.2
9139.9 kPa	961.8 ± 1.2
9164 kPa	961.8 ± 1.2
9192.5 kPa	961.9 ± 1.2
9216.2 kPa	961.8 ± 1.2
9269.5 kPa	962 ± 1.2
9293.8 kPa	961.9 ± 1.2
9318.4 kPa	962 ± 1.2
9348.8 kPa	961.9 ± 1.2
9373.9 kPa	961.9 ± 1.2
9399.6 kPa	962 ± 1.2
9431.8 kPa	962.1 ± 1.2
9459.4 kPa	962.1 ± 1.2
9492.7 kPa	962.1 ± 1.2
9518.2 kPa	962 ± 1.2
9535.7 kPa	962 ± 1.2
9548.7 kPa	962.2 ± 1.2
9563.6 kPa	962.2 ± 1.2
9576.4 kPa	962.1 ± 1.2
9591.9 kPa	962.1 ± 1.2
9617.9 kPa	962 ± 1.2
9633.3 kPa	961.9 ± 1.2
9646.7 kPa	962.2 ± 1.2
9660.3 kPa	962.1 ± 1.2
9673.6 kPa	962.1 ± 1.2
9689.4 kPa	962.3 ± 1.2
9702.7 kPa	962.2 ± 1.2
9716.1 kPa	962.2 ± 1.2
9732.2 kPa	962.1 ± 1.2
9788.5 kPa	962.2 ± 1.2
9802.3 kPa	962.3 ± 1.2
9818.5 kPa	962.2 ± 1.2
9832.1 kPa	962.3 ± 1.2
9845.9 kPa	962.3 ± 1.2
9862.6 kPa	962.3 ± 1.2
9876.5 kPa	962.3 ± 1.2
9890.5 kPa	962.4 ± 1.2
9906.8 kPa	962.3 ± 1.2
9920.8 kPa	962.3 ± 1.2
9951.3 kPa	962.3 ± 1.2
10010 kPa	962.4 ± 1.2
10071 kPa	962.3 ± 1.2
10088 kPa	962.5 ± 1.2
10103 kPa	962.5 ± 1.2
10117 kPa	962.4 ± 1.2
